What all share (format): binding
In assay [1] the target is T1, cell cycle and apoptosis regulator protein 2 (CCAR2) (Homo sapiens, UniProt Q8N163).
T1 construct: C-terminal Flag tag fused CCAR2 in pGEX-4T-1 (GST-tagged), expressed in E. coli BL21 (DE3)
In words: SPR (Biacore 8K, CM5 chip, immobilized protein); also SILAC AP-MS from HEK293T lysate.

The target of assay [2] is T2, T-complex protein 1 subunit alpha (TCP1) (Homo sapiens, UniProt P17987, D88A).
T2 construct: TCP1 mutant D88A
The assay is described as follows: SPR on mutant TCP1.

The target in assay [3] is T3, T-complex protein 1 subunit alpha (TCP1) (Homo sapiens, UniProt P17987).
T3 construct: C-terminal Flag-His6 tag fused TCP1, expressed in E. coli BL21 (DE3)
T3 sequence (P17987 whole entry, the tested form may be a part, one chain of several): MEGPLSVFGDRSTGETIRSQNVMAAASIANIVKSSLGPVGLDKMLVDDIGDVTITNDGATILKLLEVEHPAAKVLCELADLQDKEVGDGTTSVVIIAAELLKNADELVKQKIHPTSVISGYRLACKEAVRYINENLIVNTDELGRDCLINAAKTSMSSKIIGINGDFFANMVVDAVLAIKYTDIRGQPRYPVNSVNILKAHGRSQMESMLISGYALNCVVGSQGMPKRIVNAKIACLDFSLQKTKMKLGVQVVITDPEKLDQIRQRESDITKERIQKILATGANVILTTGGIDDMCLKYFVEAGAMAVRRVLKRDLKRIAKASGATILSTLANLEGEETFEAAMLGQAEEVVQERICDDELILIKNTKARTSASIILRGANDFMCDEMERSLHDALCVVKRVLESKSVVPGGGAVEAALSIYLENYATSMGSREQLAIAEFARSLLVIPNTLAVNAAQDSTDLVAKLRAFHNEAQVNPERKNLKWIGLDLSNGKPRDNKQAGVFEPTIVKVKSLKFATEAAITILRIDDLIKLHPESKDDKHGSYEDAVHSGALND
The assay is described as follows: SPR (Biacore 8K, CM5 chip, immobilized protein); also SILAC AP-MS from HEK293T lysate.

The target of assay [4] is T4, lysophospholipase-like 1 (LYPLAL1) (Homo sapiens, UniProt Q5VWZ2).
T4 construct: LYPLAL1 in pDEST15, expressed in E. coli BL21 (DE3)
T4 sequence (Q5VWZ2 2-237): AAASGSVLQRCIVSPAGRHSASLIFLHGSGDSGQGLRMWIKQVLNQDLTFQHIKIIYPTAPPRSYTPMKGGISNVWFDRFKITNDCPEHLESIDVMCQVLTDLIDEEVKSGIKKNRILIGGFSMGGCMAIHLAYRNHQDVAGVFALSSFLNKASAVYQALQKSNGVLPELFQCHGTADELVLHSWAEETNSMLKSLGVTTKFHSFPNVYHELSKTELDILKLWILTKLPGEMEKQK
The assay is described as above.

T2 sequence (P17987 whole entry D88A, one chain of several): as the sequence (P17987 whole entry, the tested form may be a part, one chain of several) above, with D88A counted along it
T1 sequence (Q8N163 whole entry, the tested form may be a part): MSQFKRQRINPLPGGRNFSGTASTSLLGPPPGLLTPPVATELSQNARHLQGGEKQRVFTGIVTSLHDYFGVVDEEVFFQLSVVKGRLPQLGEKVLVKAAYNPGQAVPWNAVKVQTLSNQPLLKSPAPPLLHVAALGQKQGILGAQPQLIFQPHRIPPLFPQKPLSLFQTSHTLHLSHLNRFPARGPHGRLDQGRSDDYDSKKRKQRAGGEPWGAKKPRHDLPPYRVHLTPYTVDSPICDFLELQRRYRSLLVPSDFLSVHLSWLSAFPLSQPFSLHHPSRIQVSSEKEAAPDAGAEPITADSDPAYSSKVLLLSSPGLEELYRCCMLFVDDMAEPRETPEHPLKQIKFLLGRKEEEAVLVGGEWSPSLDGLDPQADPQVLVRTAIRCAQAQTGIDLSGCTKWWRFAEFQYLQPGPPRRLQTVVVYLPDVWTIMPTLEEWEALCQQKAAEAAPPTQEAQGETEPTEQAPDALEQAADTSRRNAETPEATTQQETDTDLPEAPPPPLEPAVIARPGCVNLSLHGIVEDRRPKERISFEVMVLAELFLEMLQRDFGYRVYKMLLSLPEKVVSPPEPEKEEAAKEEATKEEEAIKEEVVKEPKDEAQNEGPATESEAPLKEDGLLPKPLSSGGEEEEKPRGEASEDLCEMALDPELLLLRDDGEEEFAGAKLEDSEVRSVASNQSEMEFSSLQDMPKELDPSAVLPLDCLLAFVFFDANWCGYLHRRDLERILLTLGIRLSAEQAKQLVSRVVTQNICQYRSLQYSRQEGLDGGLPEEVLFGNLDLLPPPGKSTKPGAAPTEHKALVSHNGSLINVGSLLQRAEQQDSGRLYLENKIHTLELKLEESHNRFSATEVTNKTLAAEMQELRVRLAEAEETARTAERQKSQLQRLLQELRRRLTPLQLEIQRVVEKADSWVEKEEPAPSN

A word on the Kd: it is the free concentration of one partner at which half of the binding sites on the other are occupied at equilibrium, for simple one-to-one binding. For the compound `O=C(CCCC[C@@H]1SC[C@@H]2NC(=O)N[C@@H]21)NCCOCCOCCOCCOCCOCc1cn([C@@H](CC(=O)N2CCn3c(nnc3C(F)(F)F)C2)Cc2cc(F)c(F)cc2F)nn1` [biotin-PEG5-sitagliptin], the Kd in assay [1] was determined as 441 µM; in assay [2] it was 494 µM; in assay [3] it was 50.1 µM; in assay [4] it was 1440 µM.

The record behind these values is PMC9827809, “Identification of sitagliptin binding proteins by affinity purification mass spectrometry” (Acta Biochimica et Biophysica Sinica, 2022).
